Results: US8249697B2, “Cardiac output monitor with compensation for tissue perfusion” (Alfred E. Mann Institute for Biomedical Engineering at the …, priority 2008, dated 2012)

Key:
[1] = disappearance of ICG from blood after high dose intravenous injection (calibration sequence); format: in vivo, New Zealand White rabbits; settings: rabbit, 1 mg ICG intravenously, metabolized by the liver
From the text: Experiments have been performed in New Zealand White rabbits (2.8-3.5 Kg) anesthetized with halothane and artificially ventilated with an oxygen-enriched gas mixture (FiO2˜0.4) to achieve a SaO2 above 99% and an end-tidal CO2 between 28 and 32 mm Hg (FIG. 4). The left femoral artery was cannulated for measurement of the arterial blood pressure throughout the procedure. A small catheter was positioned in the left brachial vein to inject the indicator, ICG. Body temperature was maintained with a heat lamp.
Calibration of the transcutaneous fluorescence intensity measured at the level of the animals' ear as a function of ICG concentration in blood was performed as follows. […]
As the liver metabolizes ICG, the blood ICG concentration decreases back to 0 in about 20 minutes. […] The fluorescence intensity of the blood in the cuvette was converted to a measurement of concentration using the known standard curve of fluorescence intensity versus ICG concentration established for the cuvette. ICG fluorescence was measured at the level of the ear at the exact time of the blood sample withdrawal. […]
For the range of concentrations used in these studies, ICG concentration and transcutaneous fluorescence were linearly related. The calibration line passes through the origin of the axes since there is no measured fluorescence when the ICG blood concentration is 0.

[2] = metabolites are not fluorescent; cited from earlier work
blood proteins = settings: stated as typical; cited from earlier work

time for blood ICG concentration to decrease back to 0 [1]: about 20 minutes
Compound: CC1(C)C(/C=C/C=C/C=C/C=C2\N(CCCCS(=O)(=O)O)c3ccc4ccccc4c3C2(C)C)=[N+](CCCCS(=O)(=O)[O-])c2ccc3ccccc3c21 [ICG, indocyanine green]
stability in aqueous solution [2]: breaks down quickly
fraction of ICG injected in the bloodstream that binds to blood proteins (blood proteins): more than 95%
